This is an account of results in patent publication US20230172990A1, “EXTRACELLULAR VESICLE COMPOSITIONS AND THE USE THEREOF IN THE TREATMENT OF SKIN CONDITIONS AND IN IMMUNE MODULATION” (priority 2020, published 2023).

Experiment [1] relates to elderly AT-MSCs. Description: Intracellular ROS level (H2-DCFDA fluorescence) in AT-MSCs. Type of experiment: cell-based, human. The following applies: 20 μM Eda; for ROS levels in elderly AT-MSCs after 24 hours of culture with agent: 1 mM NAC, 2 μM AA. How it is done:
The expression of ROS in infant- and elderly-derived ATMSCs was evaluated. The intracellular ROS level was measured using 2′,7′-dichlorodihydrofluorescein diacetate (H2-DCFDA, Invitrogen) according to the manufacturer's instructions. Briefly, after reaching 80% confluence, the ATMSCs were washed with PBS and incubated with PBS containing 10 μM H2-DCFDA at 37° C. for 30 minutes. The fluorescence intensity was analyzed by absorbance at 495 nm and 525 nm wavelengths using a photoemission spectrophotometer (Corona Electric, Japan).
(§1) While not wishing to be bound by theory, the oxidative stress and resulting accumulation of ROS are believed to relate to the impaired function of elderly AT-MSCs. The effects of anti-oxidative agents on elderly AT-MSCs were tested and the expression of ROS in elderly AT-MSCs were measured following culture in the presence of 20 μM Edaravone (Eda), 1 mM N-acetylcysteine (NAC), or 2 μM Ascorbic Acid (AA), respectively. […] The concentration of Eda, NAC and AA was maintained in the culture media throughout the culture period. The effects of anti-oxidative agents on cell senescence were also investigated. Cell senescence was assessed by measuring the activity of senescence associated (SA) β-galactosidase following 6 or 12 passages of culture in the presence of 20 μM Eda, 1 mM NAC, or 2 μM AA. […] In FIGS. 3A, 3B and 3C, *=P<0.05, **=P<0.01, and ns=not significant.

In experiment [2] the test system is streptozotocin-induced diabetic mouse punch biopsy model. Description: Mouse punch biopsy wound healing model (streptozotocin-induced diabetic mice). The class given is in vivo. To be noted: elderly AT-MSCs cultured 24 hours with 20 μM Eda, 1 mM NAC or 2 μM AA. How it is done:
The effect of the anti-oxidative agents Eda, NAC and AA on the wound healing ability of elderly AT-MSCs was investigated using the mouse punch biopsy model, as described in Dunn et al., J Vis Exp. (75): 50265, 2013). Briefly, 7-week-old male C57BL/6 mice were anesthetized using avertin and shaved. Two wounds were established using 5 mm biopsy punch in the mice upper dorsal area. MSCs (5×10^5 cells/wound) or EVs (4 μg/wound) were injected at 4 points surrounding the punch area. Each mouse had two punched wounds, (1) PBS and (2) cells or EV-treatment. A splint was stitched to the surrounding wound areas and covered with Tegaderm (3M, USA), and the wound sites were observed every day. The images of the wound areas were captured, and the necrotic areas were analyzed using Image J software (NIH, MD).

In experiment [3] the test system is elderly AT-MSCs. Description: Cell senescence, senescence associated (SA) β-galactosidase activity. The class given is cell-based, human. To be noted: 6 or 12 passages of culture with 20 μM Eda. On the procedure: as §1

In the case of `O=C1O[C@H]([C@@H](O)CO)C(O)=C1O` [AA, Ascorbic Acid], the “ROS levels in elderly AT-MSCs after 24 hours of culture with agent” value (“ROS levels in elderly AT-MSCs” below) in experiment [1] is “reduced ROS levels”. The “Wound healing ability of elderly AT-MSCs cultured with the agent” value (shortened to “Wound healing ability”) in experiment [2] is recorded as “no effect”.

As to `CC1=NN(c2ccccc2)C(=O)C1` [Eda, Edaravone], the “ROS levels in elderly AT-MSCs” value in experiment [1] is listed as “reduced ROS levels”. Also, the “ROS reducing effect in elderly AT-MSCs following 1 cell passage” value in experiment [1] (1 cell passage) is recorded as “ROS reducing effects of Eda were evident”. Moreover, in experiment [3], the “(SA) β-galactosidase activity (cell senescence)” value is listed as “reduced (SA) β-galactosidase activity”. In experiment [2], the “Wound healing ability” value was “significantly improved wound healing”.

In the case of `CC(=O)N[C@@H](CS)C(=O)O` [NAC, N-acetylcysteine], in experiment [1], the “ROS levels in elderly AT-MSCs” value is “reduced ROS levels”. In addition, in experiment [2], the “Wound healing ability” value is listed as “no effect”.
